According to article PMC3871636 (PLoS ONE, 2013):

Columns and labels:
[1] = biological target: CYP3A4 (C377/C468 mutant) (Homo sapiens, UniProt P08684, form not given/S18F); assay: Ligand-induced spin shift, absorbance titration; format: binding; conditions: human, purified CYP3A4(C377/C468) mutant protein, pH 7.4; read-out: K D or S 50
Method: (§1) All absorbance and fluorescence assays (including the time-resolved fluorescence measurements) were performed at a protein concentration ≤1 µM at 25°C with continuous stirring. Absorbance spectra were recorded with an S2000 rapid scanning CCD spectrometer (Ocean Optics). Ligand binding assays were done in 100 mM Na-Hepes buffer, pH 7.4, containing 0.5 mM EDTA.
(§2) Absorbance spectra obtained in titration experiments were analyzed with a principal component analysis (PCA) procedure complemented with least-square approximation of the principal vectors with a combination of the prototypical spectra of the CYP3A4 low-spin, high-spin and Type II-substrate-bound ferric CYP3A4 P450 states as described, [31].
(§3) When fitting the results of titration experiments, where the changes in the monitored signal A S (fraction of the enzyme in the high-spin state, intensity or the lifetime of the donor phosphorescence at a given substrate concentration) were assumed to be proportional to [ES], this equation was complemented with the offset A 0 and the scaling factor A max to yield the following relationship: [drawing 5] (Eq.5)

CYP3A4 (C64/C468 mutant) = CYP3A4 (C64/C468 mutant) (Homo sapiens, UniProt P08684, form not given/S18F); assay: Ligand-induced spin shift, absorbance titration; format: binding; conditions: human, purified CYP3A4(C64/C468) mutant protein, pH 7.4; read-out: K D or S 50
Chain of CYP3A4 (C64/C468 mutant) (P08684 13-503 S18F, form open): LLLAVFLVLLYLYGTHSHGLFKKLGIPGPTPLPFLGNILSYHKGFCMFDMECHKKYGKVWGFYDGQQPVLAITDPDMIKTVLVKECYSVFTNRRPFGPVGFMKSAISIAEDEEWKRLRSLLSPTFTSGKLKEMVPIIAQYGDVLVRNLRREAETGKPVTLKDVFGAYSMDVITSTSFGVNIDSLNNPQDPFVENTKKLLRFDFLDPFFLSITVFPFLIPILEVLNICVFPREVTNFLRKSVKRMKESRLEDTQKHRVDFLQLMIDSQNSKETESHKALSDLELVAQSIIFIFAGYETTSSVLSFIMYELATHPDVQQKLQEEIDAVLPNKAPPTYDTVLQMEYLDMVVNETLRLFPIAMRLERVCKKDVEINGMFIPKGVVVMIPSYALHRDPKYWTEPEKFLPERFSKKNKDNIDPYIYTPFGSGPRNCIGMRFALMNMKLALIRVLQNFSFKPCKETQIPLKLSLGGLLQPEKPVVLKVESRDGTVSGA
Method: as §1, §2, §3

[2] = biological target: CYP3A4 (double-labeled (C64/C468)-DY/ER) (Homo sapiens, UniProt P08684, form not given/S18F); assay: Steady-state LRET titration (delayed emission); format: binding; conditions: human, purified double-labeled CYP3A4 (C64/C468)-DY/ER protein, pH 7.4; (C64/C468)-DY/ER; LRET titration; read-out: K d, steady-state fluorescence
Chain of CYP3A4 (double-labeled (C64/C468)-DY/ER) (P08684 13-503 S18F, form open): as above
Outline: (§4)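 Protein at ≤1 µM, 25°C, stirred, in 100 mM Na-Hepes pH 7.4 with 0.5 mM EDTA, kept anaerobic with a protocatechuate-3,4-dioxygenase/protocatechuic acid scavenger. Delayed emission (100 µs delay) recorded from 650 to 860 nm at 540 nm excitation, with PCA-resolved donor/acceptor intensities giving LRET efficiency and distances (κ² 0.667, n 1.4). Titration signals fitted to a binding equation with offset and scaling terms.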

[3] = biological target: T1, double-labeled CYP3A4 (C64/C468)-DY/ER (Homo sapiens, UniProt P08684, S18F, form not given); assay: Steady-state LRET titration (delayed emission); format: binding
T1 sequence (P08684 13-503 S18F, form open): as above
Outline: as §4

[4] = biological target: T2, double-labeled CYP3A4 (C64/C468)-ER/DY (Homo sapiens, UniProt P08684, S18F, form not given); assay: Steady-state LRET titration (delayed emission); format: binding
T2 sequence (P08684 13-503 S18F, form open): as above
Outline: as §4

[5] = biological target: T3, double-labeled CYP3A4 C377/C468-DY/ER (Homo sapiens, UniProt P08684, S18F, form not given); assay: Steady-state LRET titration (delayed emission); format: binding; conditions: Table S2, protein C377/C468-ER/DY
T3 sequence (P08684 13-503 S18F, form open): as above
Outline: as §4

[6] = biological target: double-labeled CYP3A4 C64/C121-DY/ER (Homo sapiens, UniProt P08684, A121C/C239S/C377S/C468A/C98S/S18F); assay: Steady-state LRET titration (delayed emission); conditions: Table S2, protein C64/C121-ER/DY
Chain of double-labeled CYP3A4 C64/C121-DY/ER (P08684 with tags, fused parts or gaps S18F/C98S/A121C/C239S/C377S/C468A limits assumed): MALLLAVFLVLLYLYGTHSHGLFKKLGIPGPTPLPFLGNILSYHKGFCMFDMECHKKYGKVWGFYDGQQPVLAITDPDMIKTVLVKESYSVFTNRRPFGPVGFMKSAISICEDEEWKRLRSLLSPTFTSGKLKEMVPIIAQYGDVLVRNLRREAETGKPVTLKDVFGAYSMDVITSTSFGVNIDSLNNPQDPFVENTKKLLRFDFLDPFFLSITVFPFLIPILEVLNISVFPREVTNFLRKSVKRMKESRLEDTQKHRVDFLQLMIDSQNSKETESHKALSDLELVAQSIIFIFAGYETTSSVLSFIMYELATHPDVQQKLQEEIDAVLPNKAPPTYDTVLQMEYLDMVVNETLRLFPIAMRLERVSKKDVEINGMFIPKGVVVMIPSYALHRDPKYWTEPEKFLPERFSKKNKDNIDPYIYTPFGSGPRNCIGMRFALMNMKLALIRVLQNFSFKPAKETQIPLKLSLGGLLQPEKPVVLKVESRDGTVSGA
Outline: as §4

[7] = biological target: T1, double-labeled CYP3A4 (C64/C468)-DY/ER; assay: Time-resolved LRET (phosphorescence lifetime measurements)
Description: (§5) The excitation wavelength was set to 540 nm.

[8] = biological target: T2, double-labeled CYP3A4 (C64/C468)-ER/DY; assay: as above
Description: as §5

[9] = biological target: T3, double-labeled CYP3A4 C377/C468-DY/ER; assay: as above
Description: as §5

[10] = Table S2, C64/C468-DY/ER, 1-PB 40 µM, ANF 100 µM, BCT 2.5 µM, cholesterol 100 µM, testosterone 100 µM
[11] = Table S2, C64/C468-DY/ER, same ligand concentrations
[12] = Table S2, C64/C468-ER/DY, 1-PB 40 µM, ANF 100 µM, BCT 2.5 µM, cholesterol 100 µM, testosterone 100 µM
[13] = Table S2, C64/C468-ER/DY, same ligand concentrations
[14] = 1-PB 40 µM, ANF 100 µM, BCT 2.5 µM, cholesterol 100 µM, testosterone 100 µM
[15] = (C64/C468)-DY/ER, nearly-saturating ligand: ANF 100 µM, bromocriptine 2.5 µM, cholesterol 50 µM, testosterone 100 µM
[16] = Table S1, (C64/C468)-DY/ER, same ligand concentrations
[17] = (C64/C468)-ER/DY, nearly-saturating ligand: ANF 100 µM, bromocriptine 2.5 µM, cholesterol 50 µM, testosterone 100 µM
[18] = Table S1, (C64/C468)-ER/DY, same ligand concentrations
[19] = Table S1, protein (C377/C468)-ER/DY, same ligand concentrations
[20] = Table S2, protein C377/C468-ER/DY, same ligand concentrations

Chain of CYP3A4 (C377/C468 mutant) (P08684 13-503 S18F, form open): as the sequence (P08684 13-503 S18F, form open) above

## OCCCCc1ccc2ccc3cccc4ccc1c2c34 [1-PB, 1-pyrenebutanol]
[1]
  Kd: 14 ± 2 µM
CYP3A4 (C64/C468 mutant)
  Kd: 5.7 ± 1.7 µM
[2]
  Kd: 22.2 ± 4 µM
[3]; (C64/C468)-DY/ER
  ΔR (change in interprobe distance), steady-state fluorescence: 0.9±1.8 Å
[3]; (C64/C468)-DY/ER, from maximal relative change in donor intensity
  ΔE (change in LRET efficiency), steady-state fluorescence: −4±1%
[3]; [10]
  E (LRET efficiency with ligand), steady-state measurements: 41 ± 1%
[3]; [11]
  R (interprobe distance with ligand), steady-state measurements: 35.8 ± 1.8 Å
  ΔR, steady-state measurements: 0.9 ± 1.8 Å
[4]; (C64/C468)-ER/DY
  ΔR (change in interprobe distance), steady-state fluorescence: −0.3±0.8 Å
[4]; (C64/C468)-ER/DY, from maximal relative change in donor intensity
  ΔE (change in LRET efficiency), steady-state fluorescence: 1±1%
[4]; [12]
  E (LRET efficiency with ligand), steady-state measurements: 30 ± 1%
[4]; [13]
  R (interprobe distance with ligand), steady-state measurements: 38.8 ± 0.8 Å
  ΔR, steady-state measurements: −0.3 ± 0.8 Å
[5]; [14]
  E (LRET efficiency with ligand), steady-state measurements: 16± 1%
[5]; same ligand concentrations
  R (interprobe distance with ligand), steady-state measurements: 44.5 ± 0.7 Å
  ΔR, steady-state measurements: −0.2 ± 0.7 Å
[6]; [14]
  E (LRET efficiency with ligand), steady-state measurements: 18 ± 1%
[6]; same ligand concentrations
  R (interprobe distance with ligand), steady-state measurements: 43.4 ± 0.7 Å
  ΔR, steady-state measurements: 0.8 ± 0.7 Å
[7]; [15]
  ΔELT (change in LRET efficiency), lifetime measurements: +3.8±1%
  ΔR (change in interprobe distance), lifetime measurements: −0.9±0.1 Å
[7]; Table S1, (C64/C468)-DY/ER, 1-PB 40 µM, ANF 100 µM, BCT 2.5 µM, cholesterol 100 µM, testosterone 100 µM, bi-exponential fit
  τ1 (phosphorescence decay time with ligand): 53 ± 1 µs
[7]; [16]
  F1 (fraction of first exponential): 46 ± 3%
  τ2 (phosphorescence decay time with ligand): 195 ± 7 µs
  τav (average phosphorescence lifetime with ligand): 129 ± 1 µs
[7]; [10]
  E (LRET efficiency with ligand), lifetime measurements: 45 ± 1%
[7]; [11]
  R (interprobe distance with ligand), lifetime measurements: 35.8 ± 0.1 Å
  ΔR, lifetime measurements: -0.9 ± 0.1 Å
[8]; [17]
  ΔELT (change in LRET efficiency), lifetime measurements: −1.5±1%
  ΔR (change in interprobe distance), lifetime measurements: 0.4±0.1 Å
[8]; Table S1, (C64/C468)-ER/DY, 1-PB 40 µM, ANF 100 µM, BCT 2.5 µM, cholesterol 100 µM, testosterone 100 µM, bi-exponential fit
  τ1 (phosphorescence decay time with ligand): 63 ± 2 µs
[8]; [18]
  F1 (fraction of first exponential): 60 ± 8%
  τ2 (phosphorescence decay time with ligand): 241 ± 5 µs
  τav (average phosphorescence lifetime with ligand): 138 ± 4 µs
[8]; [12]
  E (LRET efficiency with ligand), lifetime measurements: 41 ± 1%
[8]; [13]
  R (interprobe distance with ligand), lifetime measurements: 36.7 ± 0.1 Å
  ΔR, lifetime measurements: 0.4 ± 0.1 Å
[9]; Table S1, protein (C377/C468)-ER/DY, 1-PB 40 µM, ANF 100 µM, BCT 2.5 µM, cholesterol 100 µM, testosterone 100 µM, bi-exponential fit
  τ1 (phosphorescence decay time with ligand): 45 ± 5 µs
[9]; [19]
  F1 (fraction of first exponential): 30 ± 3%
  τ2 (phosphorescence decay time with ligand): 149 ± 5 µs
  τav (average phosphorescence lifetime with ligand): 118 ± 2 µs
[9]; Table S2, protein C377/C468-ER/DY, 1-PB 40 µM, ANF 100 µM, BCT 2.5 µM, cholesterol 100 µM, testosterone 100 µM
  E (LRET efficiency with ligand), lifetime measurements: 35 ± 1%
[9]; [20]
  R (interprobe distance with ligand), lifetime measurements: 38.3 ± 0.3 Å
  ΔR, lifetime measurements: 1.6 ± 0.3 Å
